Experimental data published in patent US20090270363A1, “2-Aryl- and 2-Heteroarylthiazolyl Compounds, Methods for Their Preparation and Use Thereof” (Wyeth, priority 2008, published 2009).

Experiments:
[1] = test system: Xenografts of a Human Breast Carcinoma Cell Line (MDA-MB-361); assay: Tumor xenograft study versus Herceptin (Table 2); type: in vivo
Description: (§1) Selected fused bicyclic 2-aryl- or 2-heteroarylthiazolyl compounds of formula I were tested for their activity in a securin parental cell line (HCT116 FB) and a securin knockout (KO) cell line. […] The in-vivo activity of selected fused bicyclic 2-aryl- or 2-heteroarylthiazolyl compounds of formula I was studied in cells growing as xenografts in athymic (nude) mice. The effect of Examples 164, 166 and 167 was studied in xenografts of a human breast carcinoma cell line (MDA-MB-361).
(§2) In-vivo Activity in Tumor Xenografts. […] The fused bicyclic 2-arylthiazolyl compounds were formulated using 0.5% Methocel™ (methylcellulose) and 0.4% Tween 80™ (polysorbate-80 and oleic acid) and administered daily orally (PO), by gavage or by syringe. Tumor mass [(length×width^2)/2] was determined every 7 days. Inhibition of tumor growth was calculated relative to conventional (vehicle treated) controls.

[2] = test system: securin "knock out" cells D8 (Securin-/-); assay: Growth inhibition (sulforhodamine B, 5 days) of securin knock out cells D8; type: cell-based; details: for IC50: 120 h, securin knock out D8 cells, 5 days, SRB; for Selectivity Ratio D8: IC50 HCT116 / IC50 securin KO D8
Description: (§3) IC50 analysis was performed for selected fused bicyclic 2-aryl or 2-heteroarylthiazolyl compounds that were tested on HCT116 cells and Securin “knock out” cell lines.
(§4) Cell Culture—HCT116 and securin “knock out” cells. HCT116 and securin “knock out” cells (D8 and F3) were grown in RPMI+5% fetal bovine serum and gentamycin. They were maintained in a humidified 37° C. incubator with 5% CO2. Since the securin “knock out” cells have active chromosomal instability, cells were used at a low passage number of 2-13 passages. At or before passage 13 a new vial of cells was thawed and used for the screen. Cell seeding—HCT116 cells and securin “knock out” cells were trypsinized and suspended in RPMI+5% FBS at a density of 27,000 cells/mL. HCT116 and securin “knock out” cells were seeded separately in wells of a 96-well plate (Falcon Cat # 35-3872) at a cell density of 4000 cells per well. Cells were seeded in 150 μL of RPMI media containing 5% FBS and gentamycin. Cell seeding was performed under aseptic conditions. Cells were allowed to attach and grow overnight in a humidified 37° C. incubator.
(§5) Compound Dilution and Dispensation. A series of stock solutions, 10 mg/mL of fused bicyclic 2-aryl- or 2-heteroarylthiazolyl compounds to be tested, were brought to room temperature. The compounds were diluted 1:50 in RPMI+5% FBS (Highest concentration 200 μg/mL). The compounds were then serially diluted 1:3 across a deep-well titration plate resulting in final concentrations in the plate of 200, 66.7, 22.2, 7.4, 2.4, 0.8, 0.27, 0.091, 0.03, 0.01, and 0.0034 μg/mL with one well left without a compound. 50 μL of this dilution series was added to the 150 μL of cells to result in a final concentration of compound in with the cells of 50, 16.6, 5.5, 1.8, 0.6, 0.2, 0.068, 0.023, 0.0076, 0.0025, and 0.00084 μg/mL. The dilution and addition of compounds to the plates is performed using a Multimek 96 Robot (Beckman Coulter).
(§6) Incubation and analysis. After dosing, the cells in the 96 well plates were returned to the humidified 37° C. incubator. The compounds remained on the cells for 5 days. After 5 days, the cells were fixed to the plates with the addition of 50 μL of 50% (vol/vol) Trichloro Acetic Acid ([…]). The cells were fixed at 4° C. for 1 hour. The plates were washed 5 times in distilled water and allowed to dry. The cells were stained with 0.4% sulforhodamine B (Sigma) in 1% acetic acid. The cells were stained for 15 minutes at room temperature. The plates were then washed 3 times in 1% acetic acid. The plates were dried and the dye was solubilized in 10 mM Tris at pH 8.0. The plates were read on the Absorbence 560 setting on a Victor^2 V Model 1420 Multilabel HTS counter (Perkin Elmer).
(§7) Analysis of Results—IC50 data. Absorbence data was read off of the Victor and was converted to a percentage of the control (untreated) values. IC50 values were graphed and the point at which a 50% inhibition of the control level was determined. […] If the model was not able to determine an IC50, the IC50 was assigned to the lowest concentration that gives a 50% or greater decrease in absorbence compared to control levels. If the calculated IC50 value for a cell line exceeds the top concentration for the assay (typically 50 μg/mL), the assay was scored as >50.
(§8) Selectivity Ratio. The Selectivity Ratio is the ratio of IC50s between the parent cell line and the knock out cell line and is always a positive number and is typically an integer.

[3] = test system: securin "knock out" cells F3 (Securin-/-); assay: Growth inhibition (sulforhodamine B, 5 days) of securin knock out cells F3; type: cell-based; details: for IC50: 120 h, securin knock out F3 cells, 5 days, SRB; for Selectivity Ratio F3: IC50 HCT116 / IC50 securin KO F3
Description: as §3, §4, §5, §6, §7, §8

[4] = test system: HCT116 cells (Securin+/+, securin parental, HCT116 FB); assay: Growth inhibition (sulforhodamine B, 5 days) of securin parental cells; type: cell-based; details: Homo sapiens, HCT-116, 120 h, SRB
Description: as §3, §4, §5, §6, §7, §8

[5] = test system: Xenografts of a Human Breast Carcinoma Cell Line (MDA-MB-361); assay: Tumor xenograft study versus Vincristine (Table 3); type: in vivo; details: days 2 through 21; for S/T = # of Survivors/# of Treated on Day +36: * = sacrificed earlier due to tumor size
Description: as §1, §2
The effectiveness of Examples 164, 166 and 167 versus Vincristine at controlling tumor growth was studied and the results are summarized in Table 3 and FIG. 2.

[6] = 20 mg/kg/dose PO, days 1 through 20
[7] = 25 mg/kg/dose IP, days 1, 3, 5 ... 19
[8] = 25 mg/kg/dose PO, days 1 through 20

CN(C)c1ccc(-c2nc3c(s2)[C@@H](O)CCC3)cc1 [Example 167, (7S)-2-[4-(dimethylamino)phenyl]-4,5,6,7-tetrahydro-1,3-benzothiazol-7-ol]
% T/C Day 7 [1, 6]: 46% | % T/C Day 14 [1, 6]: 61% | % T/C Day 21 [1, 6]: 61% | Relative Tumor Growth Day 7 [1, 6]: 0.89 | Relative Tumor Growth Day 14 [1, 6]: 1.96 | Relative Tumor Growth Day 21 [1, 6]: 6.39 | S/T = # of Survivors/# of Treated on Day +21 [1, 6]: 5/5 | IC50 [2]: 60 µM | Selectivity Ratio D8 [2]: 2 | IC50 [3]: 70.7 µM | Selectivity Ratio F3 [3]: 1 | IC50 [4]: 100 µM | % T/C Day 8 ([5]; 25 mg/kg/dose PO): 61% | % T/C Day 15 ([5]; 25 mg/kg/dose PO): 68% | % T/C Day 22 ([5]; 25 mg/kg/dose PO): 113% | Relative Tumor Growth Day 8 ([5]; 25 mg/kg/dose PO): 3.18 | Relative Tumor Growth Day 15 ([5]; 25 mg/kg/dose PO): 8.38 | Relative Tumor Growth Day 22 ([5]; 25 mg/kg/dose PO): 24.80 | % T/C Day 8 ([5]; 50 mg/kg/dose PO): 50% | % T/C Day 15 ([5]; 50 mg/kg/dose PO): 62% | % T/C Day 22 ([5]; 50 mg/kg/dose PO): 71% | Relative Tumor Growth Day 8 ([5]; 50 mg/kg/dose PO): 2.62 | Relative Tumor Growth Day 15 ([5]; 50 mg/kg/dose PO): 7.61 | Relative Tumor Growth Day 22 ([5]; 50 mg/kg/dose PO): 15.56

CN(C)c1ccc(-c2nc3c(s2)[C@H](O)CCC3)cc1 [Example 164, (7R)-2-[4-(dimethylamino)phenyl]-4,5,6,7-tetrahydro-1,3-benzothiazol-7-ol]
% T/C Day 7 [1, 7]: 64% | % T/C Day 14 [1, 7]: 101% | % T/C Day 21 [1, 7]: 74% | Relative Tumor Growth Day 7 [1, 7]: 1.23 | Relative Tumor Growth Day 14 [1, 7]: 3.23 | Relative Tumor Growth Day 21 [1, 7]: 8.04 | S/T = # of Survivors/# of Treated on Day +21 [1, 7]: 4/5 | % T/C Day 7 [1, 8]: 81% | % T/C Day 14 [1, 8]: 115% | % T/C Day 21 [1, 8]: 117% | Relative Tumor Growth Day 7 [1, 8]: 1.57 | Relative Tumor Growth Day 14 [1, 8]: 3.68 | Relative Tumor Growth Day 21 [1, 8]: 12.27 | S/T = # of Survivors/# of Treated on Day +21 [1, 8]: 5/5 | selectivity ratios (IC50 HCT116 FB/IC50 securin KO) [2]: high selectivity ratios | IC50 [2]: 0.81 µM | Selectivity Ratio D8 [2]: 124 | IC50 [3]: 1.3 µM | Selectivity Ratio F3 [3]: 78 | IC50 [4]: 101 µM | % T/C Day 8 ([5]; 25 mg/kg/dose PO): 41% | % T/C Day 15 ([5]; 25 mg/kg/dose PO): 37% | % T/C Day 22 ([5]; 25 mg/kg/dose PO): 45% | Relative Tumor Growth Day 8 ([5]; 25 mg/kg/dose PO): 2.17 | Relative Tumor Growth Day 15 ([5]; 25 mg/kg/dose PO): 4.64 | Relative Tumor Growth Day 22 ([5]; 25 mg/kg/dose PO): 10.02 | Relative Tumor Growth Day 29 ([5]; 25 mg/kg/dose PO): 15.52 | % T/C Day 8 ([5]; 50 mg/kg/dose PO): 45% | Relative Tumor Growth Day 8 ([5]; 50 mg/kg/dose PO): 2.37 | Relative Tumor Growth Day 15 ([5]; 50 mg/kg/dose PO): Toxic | S/T = # of Survivors/# of Treated on Day +36 ([5]; 50 mg/kg/dose PO): 0/5

CN(C)c1ccc(-c2nc3c(s2)C(O)CCC3)cc1 (centres unmarked) [Example 166, 2-[4-(dimethylamino)phenyl]-4,5,6,7-tetrahydro-1,3-benzothiazol-7-ol]
% T/C Day 7 [1, 6]: 69% | % T/C Day 14 [1, 6]: 126% | % T/C Day 21 [1, 6]: 102% | Relative Tumor Growth Day 7 [1, 6]: 1.33 | Relative Tumor Growth Day 14 [1, 6]: 4.05 | Relative Tumor Growth Day 21 [1, 6]: 10.76 | S/T = # of Survivors/# of Treated on Day +21 [1, 6]: 10/10 | % T/C Day 7 [1, 7]: 80% | % T/C Day 14 [1, 7]: 93% | % T/C Day 21 [1, 7]: 92% | Relative Tumor Growth Day 7 [1, 7]: 1.55 | Relative Tumor Growth Day 14 [1, 7]: 3.00 | Relative Tumor Growth Day 21 [1, 7]: 9.63 | S/T = # of Survivors/# of Treated on Day +21 [1, 7]: 8/10 | IC50 [2]: 1.7 µM | Selectivity Ratio D8 [2]: 30 | IC50 [3]: 3.5 µM | Selectivity Ratio F3 [3]: 15 | IC50 [4]: 52.5 µM | % T/C Day 8 ([5]; 10 mg/kg/dose PO): 60% | % T/C Day 15 ([5]; 10 mg/kg/dose PO): 60% | % T/C Day 22 ([5]; 10 mg/kg/dose PO): 100% | Relative Tumor Growth Day 8 ([5]; 10 mg/kg/dose PO): 3.16 | Relative Tumor Growth Day 15 ([5]; 10 mg/kg/dose PO): 7.40 | Relative Tumor Growth Day 22 ([5]; 10 mg/kg/dose PO): 22.01 | % T/C Day 8 ([5]; 30 mg/kg/dose PO): 55% | % T/C Day 15 ([5]; 30 mg/kg/dose PO): 59% | % T/C Day 22 ([5]; 30 mg/kg/dose PO): 98% | Relative Tumor Growth Day 8 ([5]; 30 mg/kg/dose PO): 2.87 | Relative Tumor Growth Day 15 ([5]; 30 mg/kg/dose PO): 7.34 | Relative Tumor Growth Day 22 ([5]; 30 mg/kg/dose PO): 21.48 | % T/C Day 8 ([5]; 40 mg/kg/dose PO): 33% | % T/C Day 15 ([5]; 40 mg/kg/dose PO): 35% | % T/C Day 22 ([5]; 40 mg/kg/dose PO): 53% | Relative Tumor Growth Day 8 ([5]; 40 mg/kg/dose PO): 1.72 | Relative Tumor Growth Day 15 ([5]; 40 mg/kg/dose PO): 4.29 | Relative Tumor Growth Day 22 ([5]; 40 mg/kg/dose PO): 11.74 | Relative Tumor Growth Day 29 ([5]; 40 mg/kg/dose PO): 7.65 | % T/C Day 8 ([5]; 50 mg/kg/dose PO): 58% | % T/C Day 15 ([5]; 50 mg/kg/dose PO): 62% | Relative Tumor Growth Day 8 ([5]; 50 mg/kg/dose PO): 3.04 | Relative Tumor Growth Day 15 ([5]; 50 mg/kg/dose PO): 7.67 | Relative Tumor Growth Day 22 ([5]; 50 mg/kg/dose PO): Toxic | S/T = # of Survivors/# of Treated on Day +36 ([5]; 50 mg/kg/dose PO): 0/5

OC1CCCc2nc(-c3ccc(N4CCNCC4)cc3)sc21 (centres unmarked) [Example 163, 2-(4-piperazin-1-yl-phenyl)-4,5,6,7-tetrahydrobenzothiazol-7-ol]
IC50 [2]: 25.9 µM | Selectivity Ratio D8 [2]: 1 | IC50 [3]: 22.9 µM | Selectivity Ratio F3 [3]: 1 | IC50 [4]: 31.6 µM
